Source: patent publication US20240293405A1, “(1H-PYRROLO[2,3-B]PYRIDIN-1-YL)PYRIMIDIN-2-YL-AMINO-PHENYL-ACRYLAMIDE INHIBITORS OF EGFR FOR USE IN THE TREATMENT OF BRAIN TUMORS” (Dana-Farber Cancer Institute, Inc., priority 2021, published 2024)
“And” between values parts separate entries of the source, which are not always exact repeats. Equal values may be shown once. Read-outs that look alike come from different tables or passages of the source.

Experiments:
[1] = tested on: Glioblastoma; conditions: previously published report, cited from earlier work
[2] = tested on: BT333 cells; experiment: Cell viability, patient-derived GBM line BT333; conditions: Homo sapiens, 72 h
Experimental: (§1) Primary human glioblastoma lines BT112, BT179 and BT333 were maintained in NeuroCult proliferation medium (human) (StemCell Technologies) with 20 ng/ml EGF, 10 ng/ml FGF and 0.0002% Heparin.
(§2) Cells were seeded in 96-well plates at a density of 1,000 cells per well and treated with two-fold serial dilutions of compounds with a starting concentration of 20 μM. Cell viability was assessed after three days of treatment by CellTiter-Glo (Promega). Curve fitting analysis and IC50 value determination were performed using GraphPad Prism 8.

[3] = tested on: BT179 cells; experiment: Cell viability, patient-derived GBM line BT179; conditions: Homo sapiens, 72 h
Experimental: as §1, §2

[4] = tested on: BT112 cells; experiment: Cell viability, patient-derived GBM line BT112; conditions: Homo sapiens, 72 h
Experimental: as §1, §2

[5] = tested on: P-gp, Bcrp; conditions: previously published report; cited from earlier work
[6] = Brain and plasma exposure after single oral dose; type: in vivo, Sprague Dawley rats; conditions: Sprague Dawley, rat, 50 mg/kg, gefitinib 50 mg/kg PO, 7 hr; for concentration at 7 h: oral
[7] = Brain and plasma exposure after single oral dose; type: in vivo, Sprague Dawley rats; conditions: gefitinib 50 mg/kg PO
Text: Genfitinib concentrations were quantitated by LC-MS/MS from brain and plasma from Group 1 animals.

[8] = Brain and plasma exposure after 5 hour intravenous infusion; type: in vivo, Sprague Dawley rats; conditions: for Kp at 5 h: iv, read-out: Brain/Plasma (ratios)
Experimental: A single IV infustion for 5 hours was administered to each animal, which were then twice observed clinically (30 minutes to 1 hour post-posing and at the end of the study (TTerminal). Blood samples were collected at 5 time points from each animal over the 5 hour infusion period (5 minutes, 1 hour, 2, hours, 3 hours and TTerminal) and processed to plasma. Brains were collected at Tterminal (blotted, weighed, and snap frozen) and brain exposure was compared. […]

[9] = tested on: 468 human kinases and disease relevant mutant variants; experiment: Kinase selectivity binding panel (468 kinases); conditions: 468 kinase panel, 1 μM free base
Experimental: Compound 1 and Compound 2 (major metabolite) were evaluated in a panel of 468 human kinases and disease relevant mutant variants. Compound 1 and Compound 2 bound to few non-mutant kinases at <1% of control. […] While there is some variability between Compound 1 and Compound 2, it is clear that both compounds are very effective at binding to a large panel of mutant kinases. […] Binding constant to wild type EGFR was 4.9 nM.

[10] = Cardiovascular function (telemetry); type: in vivo, dog; conditions: plasma; dog, 100 mg/kg Compound 1 PO; M38 as metabolite; read-out: estimated single-dose Cmax
Experimental: This arrythmia was not associated with maximum plasma concentration (Cmax) or Tmax of either parent or metabolite. No definitive link to the test article could be identified. Given the unexplained reversible arrythmia in this high-dose (100 mg/kg) telemetry dog, routine electrocardiogram (ECG) monitoring in Phase 1 is recommended.

[11] = Oral dog 4-week toxicity study with toxicokinetics; type: in vivo, beagle dogs; conditions: beagle, in vivo, dog Day 28 mean, Compound 2 as metabolite; for AUC(0-t): read-out: AUC0-24
Experimental: Compound 1 (0, 10, 30, and 100 mg/kg/day) was given orally, once daily by gavage, to male and female beagle dogs (4/sex) for up to 28 days. […] The cause of death in this high-dose male was attributed to myocardial degeneration. This lesion was not observed in any other dog on study. Increases in alkaline phosphatase, globulin, cholesterol, triglycerides and fibrinogen and decreased reticulocyte counts noted in the high-dose group at mid-study returned towards baseline by the end of the study following 11/12 days of recovery. Testicular changes at all doses (seminiferous epithelial vacuolation at 10 and 30 mg/kg and degeneration/atrophy at 100 mg/kg) were not reversible in this short-term study; the reversibility period was not long enough to assess reversibility of testicular changes.
The increases were generally dose-proportional or greater-than dose-proportional on Day 1 and Day 28. Gender difference was not observed. No significant accumulation of Compound 1 or Compound 2 was observed.
Thirty-two beagle dogs (conventional, naive) were divided into four groups. Each group consists of four male and four female. Group 1 beagle dogs were administered vehicle and groups 2-4 beagle dogs were administered Compound 1 at 10 mg/kg, 30 mg/kg, and 100 mg/kg, respectively, by oral gavage once daily for 28 consecutive days (Table 15). […] Cmax (ng/mL) and AUClast (hr*ng/mL) of Compound 1 on day 1 were obtained for groups 2-4 (Table 15).

[12] = Pharmacokinetics in rats (IV, PO); type: in vivo, rat; conditions: rat, plasma, Compound 2 as metabolite
Text: Exposure was generally dose proportional.

[13] = 3 mg/kg IV infusion over 5 h, 5 h, individual animal, Compound 2 as metabolite in Compound 1-dosed rats
[14] = male, Sprague Dawley, rat, brain, intravenous, 3 mg/kg, 3 mg/kg IV infusion over 5 h, 5 h, individual animal, Compound 2 as metabolite in Compound 1-dosed rats, read-out: Brain Tissue Concentration
[15] = male, Sprague Dawley, rat, brain, intravenous, 3 mg/kg, 3 mg/kg IV infusion over 5 h, 5 h, mean n=6, Compound 2 as metabolite, read-out: Brain Tissue Concentration
[16] = male, Sprague Dawley, rat, plasma, intravenous, 3 mg/kg, 3 mg/kg IV infusion over 5 h, 1 h, individual animal, Compound 2 as metabolite in Compound 1-dosed rats
[17] = male, Sprague Dawley, rat, plasma, intravenous, 3 mg/kg, 3 mg/kg IV infusion over 5 h, 2 h, individual animal, Compound 2 as metabolite in Compound 1-dosed rats
[18] = male, Sprague Dawley, rat, plasma, intravenous, 3 mg/kg, 3 mg/kg IV infusion over 5 h, 5 h, individual animal, Compound 2 as metabolite in Compound 1-dosed rats, read-out: Plasma Concentration
[19] = female, 10 mg/kg Compound 1 PO, F
[20] = female, 30 mg/kg Compound 1 PO, F
[21] = male, 10 mg/kg Compound 1 PO, M
[22] = male, 30 mg/kg Compound 1 PO, M

COc1cc2ncnc(Nc3ccc(F)c(Cl)c3)c2cc1NC(=O)/C=C/CN1CCCCC1 [Vizimpro]
Glioblastoma (treatment outcome) [1]: Failed
Glioblastoma (treatment outcome) ([1]; listed as visimpro): failed

CS(=O)(=O)CCNCc1ccc(-c2ccc3ncnc(Nc4ccc(OCc5cccc(F)c5)c(Cl)c4)c3c2)o1 [Lapatinib]
IC50 [2]: 7.91 µM
IC50 [3]: 2.32 µM
IC50 [4]: 5.22 µM

COc1cc2ncnc(Nc3ccc(F)c(Cl)c3)c2cc1OCCCN1CCOCC1 [Gefitinib, reference compound]
Efflux Liability [5]: P-gp, Bcrp
concentration at 7 h ([6]; brain, individual animal, read-out: Brain Tissue Concentration): 561 ng/g
concentration at 7 h ([6]; brain, mean n=3, read-out: Brain Tissue Concentration): 596 ng/g
Kp at 7 h ([6]; brain, po, mean n=3, read-out: Brain/Plasma (ratios)): 0.22
concentration at 7 h ([6]; plasma, mean n=3, read-out: Plasma Concentration): 2660 ng/mL
concentration at 3 h ([7]; Sprague Dawley, rat, plasma, oral, 50 mg/kg, 3 hr, mean n=3): 1950 ng/mL
Plasma Concentration ([7]; 3 hr, individual animal): 2660 ng/mL and 1940 ng/mL and 1260 ng/mL
Brain Tissue Concentration ([7]; 7 hr, individual animal): 666 ng/g and 562 ng/g and 561 ng/g
Plasma Concentration ([7]; 7 hr, individual animal): 2240 ng/mL and 4700 ng/mL and 1030 ng/mL
Brain Tissue Concentration [8, 13]: 153 ng/g and 129 ng/g and 151 ng/g and 149 ng/g and 189 ng/g and 155 ng/g
concentration at 5 h [8, 14]: 155 ng/g
concentration at 5 h [8, 15]: 154 ng/g
concentration at 0.083 h ([8]; male, Sprague Dawley, rat, plasma, intravenous, 3 mg/kg, 3 mg/kg IV infusion over 5 h, 0.083 h, individual animal, Compound 2 as metabolite in Compound 1-dosed rats): 55.6 ng/mL
concentration at 1 h [8, 16]: 115 ng/mL
concentration at 2 h [8, 17]: 161 ng/mL
concentration at 5 h [8, 18]: 286 ng/mL
Glioblastoma (treatment outcome) [1]: Failed
Glioblastoma (treatment outcome) ([1]; listed as gefitinib): failed

CN(C)C/C=C/C(=O)Nc1cc2c(Nc3ccc(F)c(Cl)c3)ncnc2cc1O[C@H]1CCOC1 [Afatinib]
Efflux Liability [5]: P-gp, Bcrp

C=CC(=O)Nc1cc(Nc2nccc(-n3ccc4cccnc43)n2)c(OC)cc1N(C)CCNC [Compound 2, N-(5-((4-(1H-pyrrolo[2,3-b]pyridin-1-yl)pyrimidin-2-yl)amino)-4-methoxy-2-(methyl(2-(methylamino)ethyl)amino)phenyl)acrylamide]
targeted non-mutant kinases (bound at <1% of control) [9]: ERBB2, JAK3 (JH1-domain-catalytic), MKNK2, MTOR, OSR1 and TNK1
Cmax [10]: ~367 ng/mL and ~750 nM
Cmax [11, 19]: 242 ng/mL
AUC(0-t) [11, 19]: 3360 ng·h/mL
Cmax [11, 20]: 161 ng/mL
AUC(0-t) [11, 20]: 1790 ng·h/mL
Cmax [11, 21]: 143 ng/mL
AUC(0-t) [11, 21]: 1420 ng·h/mL
Cmax [11, 22]: 263 ng/mL
AUC(0-t) [11, 22]: 2980 ng·h/mL
half-life [12]: ~9 h
Tmax ([12]; po): ~7 h
Plasma Concentration ([8]; 3 mg/kg IV infusion over 5 h, 0.083 h, individual animal, Compound 2 as metabolite in Compound 1-dosed rats): BLQ
Plasma Concentration ([8]; 3 mg/kg IV infusion over 5 h, 0.083 h, mean n=6, Compound 2 as metabolite): BLQ
Plasma Concentration ([8]; 3 mg/kg IV infusion over 5 h, 1 h, individual animal, Compound 2 as metabolite in Compound 1-dosed rats): 3.47 ng/mL (2×) and 3.14 ng/mL and 3.28 ng/mL and 2.71 ng/mL
Plasma Concentration ([8]; 3 mg/kg IV infusion over 5 h, 2 h, individual animal, Compound 2 as metabolite in Compound 1-dosed rats): 7.75 ng/mL and 6.99 ng/mL and 8.41 ng/mL and 7.39 ng/mL and 6.20 ng/mL
Plasma Concentration ([8]; 3 mg/kg IV infusion over 5 h, 3 h, individual animal, Compound 2 as metabolite in Compound 1-dosed rats): 12.9 ng/mL and 10.6 ng/mL and 12.7 ng/mL and 12.5 ng/mL and 12.3 ng/mL
Brain Tissue Concentration [8, 13]: 23.6 ng/g and 20.9 ng/g and 21.0 ng/g and 21.6 ng/g and 19.8 ng/g
Brain/Plasma (ratios) [8, 13]: 1.30 and 1.07 and 1.11 and 1.06
Plasma Concentration [8, 13]: 18.1 ng/mL and 19.6 ng/mL and 18.9 ng/mL and 20.4 ng/mL and 16.8 ng/mL
brain exposure relative to plasma ([8]; Compound 2 as metabolite, rat): essentially equal to plasma
concentration at 5 h [8, 14]: 24.5 ng/g
concentration at 5 h [8, 15]: 21.9 ng/g
Kp at 5 h ([8]; male, Sprague Dawley, rat, brain, 3 mg/kg, 3 mg/kg IV infusion over 5 h, 5 h, individual animal, Compound 2 as metabolite in Compound 1-dosed rats): 1.35
Kp at 5 h ([8]; male, Sprague Dawley, rat, brain, 3 mg/kg, 3 mg/kg IV infusion over 5 h, 5 h, mean n=6, Compound 2 as metabolite): 1.18
concentration at 1 h [8, 16]: 3.24 ng/mL
concentration at 1 h ([8]; male, Sprague Dawley, rat, plasma, intravenous, 3 mg/kg, 3 mg/kg IV infusion over 5 h, 1 h, mean n=6, Compound 2 as metabolite): 3.22 ng/mL
concentration at 2 h [8, 17]: 5.62 ng/mL
concentration at 2 h ([8]; male, Sprague Dawley, rat, plasma, intravenous, 3 mg/kg, 3 mg/kg IV infusion over 5 h, 2 h, mean n=6, Compound 2 as metabolite): 7.06 ng/mL
concentration at 3 h ([8]; male, Sprague Dawley, rat, plasma, intravenous, 3 mg/kg, 3 mg/kg IV infusion over 5 h, 3 h, individual animal, Compound 2 as metabolite in Compound 1-dosed rats): 12.9 ng/mL
concentration at 3 h ([8]; male, Sprague Dawley, rat, plasma, intravenous, 3 mg/kg, 3 mg/kg IV infusion over 5 h, 3 h, mean n=6, Compound 2 as metabolite): 12.3 ng/mL
concentration at 5 h [8, 18]: 18.2 ng/mL
concentration at 5 h ([8]; male, Sprague Dawley, rat, plasma, intravenous, 3 mg/kg, 3 mg/kg IV infusion over 5 h, 5 h, mean n=6, Compound 2 as metabolite, read-out: Plasma Concentration): 18.7 ng/mL

C#Cc1cccc(Nc2ncnc3cc(OCCOC)c(OCCOC)cc23)c1 [Erlotinib]
IC50 [2]: 52.3 µM
IC50 [3]: 11.7 µM
Efflux Liability [5]: P-gp, Bcrp
IC50 [4]: 18.5 µM
Glioblastoma (treatment outcome) [1]: Failed
Glioblastoma (treatment outcome) ([1]; listed as erlotinib): failed
